According to publication PMC9926234, “Iterative computational design and crystallographic screening identifies potent inhibitors targeting the Nsp3 macrodomain of SARS-CoV-2” (Proceedings of the National Academy of Sciences of the …, 2023):
Like-named read-outs stand apart in the source and are kept apart here.

Experiments:
SARS-CoV-2 NSP3 Mac1 [1] = target: T1, SARS-CoV-2 NSP3 Mac1 (Severe acute respiratory syndrome coronavirus 2, UniProt P0DTD1); assay type: binding; parameters: contains a conserved macrodomain enzyme (Mac1); details: for Spearman est (compound concentration vs apparent Tm): DSF dose responsiveness, 1 µM nsp3 mac1, adj p given
Method: DSF and associated compound handling was performed as described ([12]), with 5 µM dye “Fluorescent Yellow” (Jacquard iDye Cat #JID1405) used in place of SYPRO Orange. Compounds were tested in triplicate, at seven concentrations in two-fold serial dilutions, at a top concentration of either 1,000 or 100 μM. To minimize experimental noise arising from plate location-based effects on Tma, all concentrations and replicates for each compound were tested within a single region of the microtiter plates, including a DMSO-only control from which ΔTmas were calculated for that compound. […] For each compound, to determine statistical significance of the dose responsive thermal shift, the Spearman’s coefficient was calculated between compound concentration and ΔTma.

SARS-CoV-2 NSP3 Mac1 [2] = target: T1, SARS-CoV-2 NSP3 Mac1; assay type: binding; details: for Refined occupancy: ligand occupancy after refinement (phenix.refine); for HIT*: true hit = binding in crystallographic soaking or the HTRF-based binding assay
[3] = PanDDA 1-BDC of the event, compound stock 100 mM, Echo dispense volume 80 nl
[4] = PanDDA event map, 1 minus background density correction, crystal soaking of Mac1
[5] = crystal soak, compound stock 100 mM, Echo dispense volume 80 nl
[6] = ligand modeled in structure, compound stock 100 mM, Echo dispense volume 80 nl
[7] = PanDDA event map 1-BDC, crystal soak, Compound_concentration 100 mM, PanDDA run dmso_34 or nohits_35 per dataset
[8] = crystal soak, Compound_concentration 100 mM, Echo dispense 40 nl, PanDDA run dmso_34 or nohits_35 per dataset
[9] = maximal thermal upshift vs DMSO control

O=C(O)CC1Cc2ccccc2N1C(=O)c1ccc(NC(=O)NC2CC2)cc1 (stereo not drawn) [8539_0039]
Spearman est (compound concentration vs apparent Tm) (SARS-CoV-2 NSP3 Mac1 [1]): 0.09
DSF max dTma (SARS-CoV-2 NSP3 Mac1 [1]; maximal thermal upshift): 2.09 ˚C

COC(=O)C1Cc2c(O)cccc2C1NC(=O)c1ccc(NC(=O)NC2CC2)cc1 (stereo not drawn) [8539_0076]
Spearman est (compound concentration vs apparent Tm) (SARS-CoV-2 NSP3 Mac1 [1]): −0.19
DSF max dTma (SARS-CoV-2 NSP3 Mac1 [1]; maximal thermal upshift): 0 ˚C

COC(=O)C1(CO)CCN(c2ncnc3[nH]c4cc(F)ccc4c23)C1 (stereo not drawn) [Compound Z9556]
1-BDC (SARS-CoV-2 NSP3 Mac1 [2]; [3]): 0.1
1-BDC (PanDDA) (SARS-CoV-2 NSP3 Mac1 [2]; [4]): 0.1
PanDDA hit? (SARS-CoV-2 NSP3 Mac1 [2]; [5]): TRUE
Modeled? (SARS-CoV-2 NSP3 Mac1 [2]; [6]): TRUE
Refined occupancy (SARS-CoV-2 NSP3 Mac1 [2]; crystal soaking of Mac1): 20

O=C(O)CC1CN(c2ncnc3[nH]c4ccccc4c23)CCO1 (stereo not drawn) [Compound Z9596]
1-BDC (SARS-CoV-2 NSP3 Mac1 [2]; PanDDA 1-BDC of the event, compound stock 100 mM, Echo dispense volume 40 nl): 0.06
1-BDC (SARS-CoV-2 NSP3 Mac1 [2]; [3]): 0.09
1-BDC (PanDDA) (SARS-CoV-2 NSP3 Mac1 [2]; [4]): 0.06
PanDDA hit? (SARS-CoV-2 NSP3 Mac1 [2]; crystal soak, compound stock 100 mM, Echo dispense volume 40 nl): TRUE
PanDDA hit? (SARS-CoV-2 NSP3 Mac1 [2]; [5]): TRUE
Modeled? (SARS-CoV-2 NSP3 Mac1 [2]; ligand modeled in structure, compound stock 100 mM, Echo dispense volume 40 nl): TRUE
Refined occupancy (SARS-CoV-2 NSP3 Mac1 [2]; crystal soaking of Mac1): 12

O=C1CCCN1CCSc1ncnc2[nH]cnc12 [Compound Z9920]
1-BDC (SARS-CoV-2 NSP3 Mac1 [2]; PanDDA 1-BDC (background density correction) of the event, crystal soak 100 mM, PanDDA run dmso_34): 0.21
1-BDC (SARS-CoV-2 NSP3 Mac1 [2]; [4]): 0.21
PanDDA hit? (SARS-CoV-2 NSP3 Mac1 [2]; crystal soak, compound concentration 100 mM, PanDDA run dmso_34, series docking_lead-like_1): TRUE
Modeled? (SARS-CoV-2 NSP3 Mac1 [2]; ligand modeled in the crystal structure, crystal soak 100 mM, PanDDA run dmso_34): TRUE
Refined occupancy (SARS-CoV-2 NSP3 Mac1 [2]; crystal soaking of Mac1): 42

O=C1CC2(CC2)C(CSc2n[nH]c(-c3ccccn3)n2)O1 (stereo not drawn) [FRESH00010267028]
Spearman est (compound concentration vs apparent Tm) (SARS-CoV-2 NSP3 Mac1 [1]): 0.52
DSF max dTma (SARS-CoV-2 NSP3 Mac1 [1]; maximal thermal upshift): 0.32 ˚C

O=S1(=O)CCC2(CCCN(c3ncnc4[nH]c5cc(F)ccc5c34)C2)C1 (stereo not drawn) [LL1_0010]
Spearman est (compound concentration vs apparent Tm) (SARS-CoV-2 NSP3 Mac1 [1]): 0.3
DSF max dTma (SARS-CoV-2 NSP3 Mac1 [1]; maximal thermal upshift): 0.68 ˚C

NC(=O)C1CCCN(c2ncnc3[nH]c4cc(F)ccc4c23)C1 (stereo not drawn) [LL1_0016]
Spearman est (compound concentration vs apparent Tm) (SARS-CoV-2 NSP3 Mac1 [1]): 0.18
DSF max dTma (SARS-CoV-2 NSP3 Mac1 [1]; maximal thermal upshift): 0.6 ˚C

O=C(O)[C@@H]1[C@@H]2CCN(c3ncnc4[nH]c5cc(F)ccc5c34)C[C@@H]21 [LL114_0037]
1-BDC (SARS-CoV-2 NSP3 Mac1 [2]; [3]): 0.17
1-BDC (SARS-CoV-2 NSP3 Mac1 [2]; [7]): 0.17
1-BDC (PanDDA) (SARS-CoV-2 NSP3 Mac1 [2]; [4]): 0.17
PanDDA hit? (SARS-CoV-2 NSP3 Mac1 [2]; [8]): TRUE
PanDDA hit? (SARS-CoV-2 NSP3 Mac1 [2]; [5]): TRUE
Modeled? (SARS-CoV-2 NSP3 Mac1 [2]; [6]): TRUE
Refined occupancy (SARS-CoV-2 NSP3 Mac1 [2]; crystal soaking of Mac1): 34

OCC1CN(c2ncnc3[nH]c4cc(F)ccc4c23)CC2(CCC2)O1 (stereo not drawn) [LL123_0025]
1-BDC (SARS-CoV-2 NSP3 Mac1 [2]; [3]): 0.1
1-BDC (SARS-CoV-2 NSP3 Mac1 [2]; [7]): 0.09
1-BDC (PanDDA) (SARS-CoV-2 NSP3 Mac1 [2]; [4]): 0.07
1-BDC (SARS-CoV-2 NSP3 Mac1 [2]; PanDDA event map, crystal soak, Compound_concentration 100 mM, Echo_dispense_volume 40 nl): 0.07
PanDDA hit? (SARS-CoV-2 NSP3 Mac1 [2]; [8]): TRUE
PanDDA hit? (SARS-CoV-2 NSP3 Mac1 [2]; crystal soak, Compound_concentration 100 mM, Echo_dispense_volume 40 nl, PanDDA run (background map) dmso_34, nohits_35 or nohits_62): TRUE
PanDDA hit? (SARS-CoV-2 NSP3 Mac1 [2]; [5]): TRUE
Modeled? (SARS-CoV-2 NSP3 Mac1 [2]; ligand modeled, crystal soak, Compound_concentration 100 mM, Echo_dispense_volume 40 nl): TRUE
Refined occupancy (SARS-CoV-2 NSP3 Mac1 [2]; crystal soaking of Mac1): 14
HIT* (SARS-CoV-2 NSP3 Mac1 [2]): Y

CNc1ccc(C(=O)N2CC(C(=O)O)CC2(C)C)cn1 (stereo not drawn) [REAL250001652488]
Spearman est (compound concentration vs apparent Tm) (SARS-CoV-2 NSP3 Mac1 [1]): 0.12
DSF max dTma (SARS-CoV-2 NSP3 Mac1 [1]; maximal thermal upshift): 0.21 ˚C

NC(=O)c1cc(N2CCCC[C@H]2C(=O)O)ncn1 [REAL250003324764]
Spearman est (compound concentration vs apparent Tm) (SARS-CoV-2 NSP3 Mac1 [1]): 0.14
DSF max dTma (SARS-CoV-2 NSP3 Mac1 [1]; maximal thermal upshift): 0.15 ˚C

CNc1ccc(C(=O)N2CC(C(=O)O)CC23CCOCC3)cn1 (stereo not drawn) [REAL300007318908]
Spearman est (compound concentration vs apparent Tm) (SARS-CoV-2 NSP3 Mac1 [1]): 0.29
DSF max dTma (SARS-CoV-2 NSP3 Mac1 [1]; maximal thermal upshift): 0.04 ˚C

FC1(F)CCCC(Nc2ncnc3[nH]ccc23)C1 (stereo not drawn) [SRH-0014]
1-BDC (SARS-CoV-2 NSP3 Mac1 [2]; [7]): 0.09
PanDDA hit? (SARS-CoV-2 NSP3 Mac1 [2]; [8]): TRUE

O=C(Cc1ccc2c(c1)CCO2)OCc1cc2ccccc2[nH]c1=O [Z0132]
DSF max dTma (SARS-CoV-2 NSP3 Mac1 [1]; [9]): 0.21 °C

CN(Cc1nnc2c(=O)[nH]ccn12)C(=O)COC1CC1 [Z0288]
DSF max dTma (SARS-CoV-2 NSP3 Mac1 [1]; [9]): 0.49 °C

Cc1cnc(COC(=O)C(C)(C)c2ccc(O)cc2)o1 [Z0329]
DSF max dTma (SARS-CoV-2 NSP3 Mac1 [1]; [9]): 0.06 °C

CC1CN(C(=O)CCc2nc(-c3ccncc3)no2)C1c1ccccc1 (stereo not drawn) [Z0856]
DSF max dTma (SARS-CoV-2 NSP3 Mac1 [1]; [9]): 0.6 °C

COc1ccc(Cl)cc1Cn1cnc2c(N)ncnc21 [Z0953]
DSF max dTma (SARS-CoV-2 NSP3 Mac1 [1]; [9]): 0.27 °C

O=c1[nH]ccn2c(CSc3nc4ccccc4s3)nnc12 [Z1015]
DSF max dTma (SARS-CoV-2 NSP3 Mac1 [1]; [9]): 0.67 °C

Nc1ncnc(SCCc2cccc(Cl)c2Cl)n1 [Z1086]
DSF max dTma (SARS-CoV-2 NSP3 Mac1 [1]; [9]): 0.21 °C

Cc1ccc(-c2noc(CCCSC3CCCNC3=O)n2)cc1F (stereo not drawn) [Z1121]
DSF max dTma (SARS-CoV-2 NSP3 Mac1 [1]; [9]): 0.57 °C

CN(Cc1cccc(O)c1)C(=O)Cc1ccncc1 [Z1186]
DSF max dTma (SARS-CoV-2 NSP3 Mac1 [1]; [9]): 0.19 °C

Nc1ncc(S(=O)(=O)N2CC(F)(F)C[C@H]2C(=O)O)cn1 [Z1314]
HIT* (SARS-CoV-2 NSP3 Mac1 [2]): Y

CC(C)c1noc(CCc2nc(-c3ccnc4[nH]ccc34)no2)n1 [Z1347]
DSF max dTma (SARS-CoV-2 NSP3 Mac1 [1]; [9]): 0 °C

Cc1cc(CSc2nnc3c(=O)[nH]c4ccccc4n23)no1 [Z1628]
DSF max dTma (SARS-CoV-2 NSP3 Mac1 [1]; [9]): 0.68 °C

Cc1ccccc1CNc1ncnc(-c2ccccc2)n1 [Z1635]
DSF max dTma (SARS-CoV-2 NSP3 Mac1 [1]; [9]): 0.85 °C

Cc1ccc(C(=O)N2CC[C@H](Oc3ccccc3)C2)cc1O [Z2024]
DSF max dTma (SARS-CoV-2 NSP3 Mac1 [1]; [9]): 0.36 °C

O=C(COC(=O)c1ccc2nsnc2c1)c1ccccc1 [Z2380]
DSF max dTma (SARS-CoV-2 NSP3 Mac1 [1]; [9]): 0.47 °C

Cc1ccc(CC(=O)OCc2noc(C3CC3)n2)cc1O [Z2995]
DSF max dTma (SARS-CoV-2 NSP3 Mac1 [1]; [9]): 0.32 °C

CN(c1cc(NC2CC2)ncn1)C1CCCN(c2cccnn2)C1 (stereo not drawn) [Z3167]
DSF max dTma (SARS-CoV-2 NSP3 Mac1 [1]; [9]): 0.44 °C

CN(Cc1ncc(Cl)n1C)c1ncnc(N)n1 [Z3291]
DSF max dTma (SARS-CoV-2 NSP3 Mac1 [1]; [9]): 0.98 °C

O=C(Nc1nc2ccccc2c(=O)[nH]1)c1cccnc1 [Z3628]
DSF max dTma (SARS-CoV-2 NSP3 Mac1 [1]; [9]): 0.49 °C

CN(C(=O)CN1CCNC(=O)C1)c1ccc(-c2nccs2)cc1 [Z3700]
DSF max dTma (SARS-CoV-2 NSP3 Mac1 [1]; [9]): 0 °C
